Data reported in patent US20200239530A1, “COMPOUNDS AND METHODS OF MODULATING PROTEIN DEGRADATION” (Vividion Therapeutics, Inc., priority 2017, published 2020).

Assays:
[1] = target: T1, KIAA0528 Uncharacterized protein KIAA0528 (Homo sapiens, UniProt Q86YS7); experiment: Cysteine liganding, probe competition; format: binding
T1 construct: Cells were resuspended in cold PBS on ice and sonicated with a probe sonicator to achieve lysis; endogenous in cells
T1 sequence (Q86YS7 1-1000): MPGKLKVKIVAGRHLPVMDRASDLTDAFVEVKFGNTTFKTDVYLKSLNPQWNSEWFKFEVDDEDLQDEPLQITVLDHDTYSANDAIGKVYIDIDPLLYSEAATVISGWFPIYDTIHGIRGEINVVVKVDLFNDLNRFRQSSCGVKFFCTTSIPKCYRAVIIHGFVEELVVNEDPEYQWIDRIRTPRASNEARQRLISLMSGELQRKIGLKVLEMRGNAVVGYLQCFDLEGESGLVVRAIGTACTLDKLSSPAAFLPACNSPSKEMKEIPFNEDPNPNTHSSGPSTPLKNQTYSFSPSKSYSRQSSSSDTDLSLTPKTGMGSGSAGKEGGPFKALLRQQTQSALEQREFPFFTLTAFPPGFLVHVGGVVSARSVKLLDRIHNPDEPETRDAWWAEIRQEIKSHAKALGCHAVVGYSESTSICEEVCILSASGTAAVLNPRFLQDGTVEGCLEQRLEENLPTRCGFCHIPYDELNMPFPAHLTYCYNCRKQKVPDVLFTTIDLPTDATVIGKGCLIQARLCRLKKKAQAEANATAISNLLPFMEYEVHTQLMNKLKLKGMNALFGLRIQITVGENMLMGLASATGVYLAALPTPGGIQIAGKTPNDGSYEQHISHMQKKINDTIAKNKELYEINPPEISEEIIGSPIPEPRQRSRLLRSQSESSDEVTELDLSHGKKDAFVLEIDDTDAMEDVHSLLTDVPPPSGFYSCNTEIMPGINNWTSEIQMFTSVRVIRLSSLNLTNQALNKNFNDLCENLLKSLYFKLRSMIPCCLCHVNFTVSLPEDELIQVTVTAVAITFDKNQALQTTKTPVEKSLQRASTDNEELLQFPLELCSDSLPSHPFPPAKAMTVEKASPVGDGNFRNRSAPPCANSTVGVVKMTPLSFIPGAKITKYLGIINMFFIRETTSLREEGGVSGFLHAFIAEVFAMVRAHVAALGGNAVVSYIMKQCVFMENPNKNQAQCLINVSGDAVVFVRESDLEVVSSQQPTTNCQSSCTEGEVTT
Summary of the method: (§1)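 Probe competition in native proteome: 5 mg/ml lysate, compound 1 hr 25° C, then desthiobiotin iodoacetamide (10 mM stock) 1 hr 25° C; acetone ppt, urea/DTT reduction, iodoacetamide alkylation, trypsin, streptavidin pull-down.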

[2] = target: T2, MAPK8 Mitogen-activated protein kinase 8 (Homo sapiens, UniProt P45983); experiment: Cysteine liganding, probe competition; format: binding; settings: for 100 Max / 100 ave / 500 ave / 500 Max: uniprot P45983; for 500 Max: in % (unit assumed)
T2 construct: Cells were resuspended in cold PBS on ice and sonicated with a probe sonicator to achieve lysis; endogenous in cells
Summary of the method: as §1

T2 sequence (P45983 whole entry): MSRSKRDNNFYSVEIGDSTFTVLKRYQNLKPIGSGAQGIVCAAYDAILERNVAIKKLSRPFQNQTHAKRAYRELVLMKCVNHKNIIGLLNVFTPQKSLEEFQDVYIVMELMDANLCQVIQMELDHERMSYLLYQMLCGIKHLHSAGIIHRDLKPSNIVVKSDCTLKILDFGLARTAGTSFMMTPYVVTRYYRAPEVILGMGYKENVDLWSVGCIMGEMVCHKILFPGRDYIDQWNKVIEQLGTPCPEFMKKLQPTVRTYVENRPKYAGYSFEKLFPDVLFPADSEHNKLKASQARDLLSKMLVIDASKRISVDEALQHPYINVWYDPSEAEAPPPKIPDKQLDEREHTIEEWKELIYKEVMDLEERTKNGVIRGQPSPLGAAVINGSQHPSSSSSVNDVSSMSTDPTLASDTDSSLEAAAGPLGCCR

For `COc1ccc2c(c1)CCCN2C(=O)CCl` [KB02], the Liganded ([1]; KIAA0528 Res# 867, uniprot Q86YS7) was “YES”, the Liganded ([2]; MAPK8 Res# 245, uniprot P45983) was “YES” and the “100 Max” value [2] was 44.42. The 100 ave [2] was 26.11, the 500 ave [2] was 76.89 and the “500 Max” value [2] was 78.63.

In the case of `O=C(CCl)Nc1cc(C(F)(F)F)cc(C(F)(F)F)c1` [KBO3], the 100 ave ([1]; uniprot Q86YS7) is reported as −6.4125, the “500 Max” value ([1]; uniprot Q86YS7) is reported as 46.81 and the 500 ave ([1]; uniprot Q86YS7) is reported as 33.415. For the same compound, the 100 Max ([1]; uniprot Q86YS7, unit assumed) was 7.23%, the “100 Max” value [2] was 17.22 and the 100 ave [2] was 12.33. For the same compound, the 500 ave [2] was 40.875 and the “500 Max” value [2] was 44.06.
